Results on 15 molecules are retold here after article PMC2630410 (Molecular and biochemical parasitology, 2008).

Read-outs that look alike come from different tables or passages of the source.

The target of data set [1] is T1, TbNT11.1 (Trypanosoma brucei brucei, UniProt Q38CR7). In kind it is cell-based. To be noted: for Inhibition of [14C]pentamidine uptake by unlabeled nucleobase: 1 mM unlabeled substrate, TbNT11-expressing oocytes.
Data set [2] addresses T2, TbNT12.1 (Trypanosoma brucei brucei, UniProt Q57TQ7).
T2 sequence (Q57TQ7 1-462): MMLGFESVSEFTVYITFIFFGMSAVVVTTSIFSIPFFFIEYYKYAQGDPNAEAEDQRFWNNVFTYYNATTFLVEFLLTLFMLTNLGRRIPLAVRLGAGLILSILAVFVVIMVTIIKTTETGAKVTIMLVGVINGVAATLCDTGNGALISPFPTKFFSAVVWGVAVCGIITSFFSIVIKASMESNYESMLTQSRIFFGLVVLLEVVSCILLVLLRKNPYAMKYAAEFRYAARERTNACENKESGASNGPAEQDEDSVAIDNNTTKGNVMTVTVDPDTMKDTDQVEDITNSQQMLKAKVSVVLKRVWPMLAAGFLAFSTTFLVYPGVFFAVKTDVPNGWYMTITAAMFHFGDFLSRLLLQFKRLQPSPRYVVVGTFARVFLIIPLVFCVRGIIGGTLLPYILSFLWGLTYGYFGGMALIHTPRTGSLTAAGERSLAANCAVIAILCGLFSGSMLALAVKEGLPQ
Briefly: Uptake of adenine and pentamidine by TbNT12.1 expressed in Xenopus oocytes. The settings on record: for Transport by TbNT12.1 (in words): versus water-injected oocytes. The data set is classed as cell-based.

Data set [3] has as its system TbNT12.2. In words: Uptake of adenine and pentamidine by TbNT12.2 expressed in Xenopus oocytes. In kind it is cell-based, Trypanosoma brucei. The settings on record: for Transport by TbNT12.2 (in words): Xenopus oocytes, versus water-injected oocytes.
In the next data set the test system is PPT1. In words: Inhibition of [14C]pentamidine uptake by PF trypanosomes. In kind it is cell-based, Trypanosoma brucei. The settings on record: 1 mM nucleobase, 25 μM [14C]pentamidine; data not shown.
Data set [4] addresses T1, TbNT11.1. In kind it is cell-based. The settings on record: for TbNT11.1-mediated uptake of radiolabeled substrate: 1 μM [3H]substrate, Δlmant3[pTbNT11] line.
For data set [5], the target named is T1, TbNT11.1. In kind it is cell-based. To be noted: oocytes expressing TbNT11.1; data not shown.
Data set [6] deals with T1, TbNT11.1. In words: Inhibition of [3H]adenine uptake by TbNT11.1 in Δlmant3[pTbNT11.1] parasites. In kind it is cell-based.
In data set [7] the target is T1, TbNT11.1. In kind it is cell-based. To be noted: for Inhibition of [3H]hypoxanthine uptake by nucleosides: 1 mM nucleoside, Δlmant3[pTbNT11.1] parasites; for Inhibition of [3H]hypoxanthine uptake by nucleosides / Inhibition of hypoxanthine uptake by pyrimidine nucleobases: data not shown; for Inhibition of [3H]hypoxanthine uptake by TbNT11.1 (in words): 1 μM [3H]hypoxanthine, graded concentrations of inhibitor; for Inhibition of hypoxanthine uptake by pyrimidine nucleobases: concentrations up to 1 mM.

Another data set concerns Δlmant3 parasites. Briefly: Background adenine uptake by Δlmant3 parasites. The settings on record: 50 μM adenine. The data set is classed as cell-based, Leishmania major.
Data set [8] has as its system TbNT12.2. In words: Adenine uptake by TbNT12.2 expressed in Δlmant3 promastigotes. In kind it is cell-based, Trypanosoma brucei. To be noted: 50 μM adenine, n=3.
In data set [9] the target is T2, TbNT12.1. In words: Adenine uptake by TbNT12.1 expressed in Δlmant3 promastigotes. In kind it is cell-based. To be noted: 50 μM adenine, n=3.
The next data set concerns the target TbNT8.1 (Trypanosoma brucei brucei, UniProt Q386F1). The data set is classed as cell-based. The settings on record: 12.5 μM [3H]hypoxanthine.
The target of data set [10] is T1, TbNT11.1. In words: [3H]adenosine uptake by Δldnt1/Δldnt2[pTbNT11.1] line. In kind it is cell-based. To be noted: 0.5 μM or 100 μM [3H]adenosine; data not shown.
In another data set the test system is O=c1[nH]cnc2nc[nH]c12. Briefly: cells, lysate or membranes. The settings on record: other: substrate saturation, 1 min, Δlmant3[pTbNT11.1], n=3.
Substrate in data set [11]: N=C(N)c1ccc(OCCCCCOc2ccc(C(=N)N)cc2)cc1
Briefly: Uptake of adenine and pentamidine by TbNT12.1 expressed in Xenopus oocytes. To be noted: other: Xenopus oocytes, n=3; 16.0 °C. In kind it is cell-based, Trypanosoma brucei.

The mark [12] stands for this setting: transport rates linear from 0–1 mM adenine.

Turning to `O=c1[nH]cnc2nc[nH]c12` [hypoxanthine], the “Inhibition of [14C]pentamidine uptake by unlabeled nucleobase” value (from here on “Inhibition … by unlabeled nucleobase”) at TbNT11.1 [1] (50 μM [14C]pentamidine) is on record as “partially inhibited”. For the same molecule, the “Transport by TbNT12.1 (in words)” value on TbNT12.1 [2] (Xenopus oocytes) is recorded as “did not mediate the uptake”. Further, the “Transport by TbNT12.2 (in words)” value in the data set with TbNT12.2 [3] was “did not mediate the uptake”. For the same molecule, in the data set on PPT1, the “Inhibition of [14C]pentamidine uptake by PFs” value (shortened to “Inhibition … by PFs”) is “did not inhibit”. In addition, on TbNT11.1 [4], the “TbNT11.1-mediated uptake of radiolabeled substrate” value (shortened to “TbNT11.1-mediated uptake”) is reported as “mediated uptake”.

On to `Nc1nc(N)nc(Nc2ccc([As]3SCC(CO)S3)cc2)n1` (centres unmarked) [melarsoprol], for which the “Melarsoprol uptake over background of water injected oocytes” value at TbNT11.1 [5] is “no uptake”. Moreover, the EC50 at TbNT11.1 [6] came to 12.9 µM.

For `Nc1nc2c(ncn2[C@@H]2O[C@H](CO)[C@@H](O)[C@H]2O)c(=O)[nH]1` [guanosine], the “Inhibition of [3H]hypoxanthine uptake by nucleosides” value (“Inhibition … by nucleosides” below) at TbNT11.1 [7] is “failure”.

Consider `Nc1ncnc2[nH]cnc12` [adenine], for which, at TbNT11.1 [1] (50 μM [14C]pentamidine), the “Inhibition … by unlabeled nucleobase” value is “very poor inhibitor”. Also, the “Transport by TbNT12.1 (in words)” value on TbNT12.1 [2] (Xenopus oocytes) is on record as “transport”. In addition, the “Affinity of TbNT12.1 for substrate” value on TbNT12.1 [2] (setting [12]) is “low”. The molecule also registered a Ki on TbNT11.1 [7] of 8 µM. Besides, the “Background uptake of adenine in Δlmant3 parasites” value with Δlmant3 parasites worked out at 41.8 ± 1.4 pmol/min/10^7 parasites. The “Transport by TbNT12.2 (in words)” value in the data set with TbNT12.2 [3] is recorded as “transport”. Besides, in the data set on TbNT12.2 [3] (setting [12]), the “Affinity of TbNT12.2 for substrate” value is recorded as “low”. In addition, the “Inhibition … by PFs” value with PPT1 is “did not inhibit”. Also, the “TbNT11.1-mediated uptake” value at TbNT11.1 [4] is “mediated uptake”. In the data set on TbNT12.2 [8], the “Uptake of adenine, TbNT12.2 in Δlmant3 promastigotes” value came out at 86.5 ± 1.1 pmol/min/10^7 parasites. Further, on TbNT12.1 [9], the “Uptake of adenine, TbNT12.1 in Δlmant3 promastigotes” value was found to be 103 ± 2 pmol/min/10^7 parasites.

Turning to `Nc1nc2nc[nH]c2c(=O)[nH]1` [guanine], the “Transport by TbNT12.1 (in words)” value at TbNT12.1 [2] (Xenopus oocytes) was “did not mediate the uptake”. In addition, on TbNT11.1 [7], the “Inhibition of [3H]hypoxanthine uptake by TbNT11.1 (in words)” value is reported as “an inhibitor”. The “Transport by TbNT12.2 (in words)” value in the data set with TbNT12.2 [3] is “did not mediate the uptake”. In addition, the “Inhibition … by PFs” value with PPT1 was “did not inhibit”. On TbNT11.1 [4], the “TbNT11.1-mediated uptake” value was “not a substrate”.

On to `Nc1cc[nH]c(=O)n1` [cytosine], for which the “Inhibition of hypoxanthine uptake by pyrimidine nucleobases” value at TbNT11.1 [7] is “did not inhibit”.

As for `N=C(N)c1ccc(OCCCCCOc2ccc(C(=N)N)cc2)cc1` [pentamidine], the “Uptake of [14C]pentamidine by TbNT11.1 cRNA-injected oocytes” value at TbNT11.1 [1] (50 μM [14C]pentamidine, versus water injected oocytes) was “much more rapidly than control water injected oocytes”. Also, the Km at TbNT11.1 [1] (read-out: Km for pentamidine uptake by TbNT11.1, Xenopus oocytes, 1 h, n=3) came to 407 ± 119 µM. Besides, the “Vmax for pentamidine uptake by TbNT12.1” value at TbNT12.1 [2] (Xenopus oocytes, n=3) is 21.8 ± 6.5 pmol/h/oocyte. For the same molecule, the “Transport by TbNT12.1 (in words)” value at TbNT12.1 [2] (Xenopus oocytes) is given as “also transport”. Besides, the results for the EC50 on TbNT11.1 [7] and at TbNT11.1 [6] were 4.8 µM and 9.6 µM, respectively. In the data set with TbNT12.2 [3], the “Transport by TbNT12.2 (in words)” value is reported as “also transport”. The “Inhibition of hypoxanthine transport by TbNT8.1” value on TbNT8.1 is listed as “did not significantly inhibit”.

As to `O=c1[nH]c(=O)c2nc[nH]c2[nH]1` [xanthine], the “Inhibition … by unlabeled nucleobase” value on TbNT11.1 [1] (50 μM [14C]pentamidine) is reported as “partially inhibited”. The “Transport by TbNT12.1 (in words)” value on TbNT12.1 [2] (Xenopus oocytes) is “did not mediate the uptake”. Further, the “Transport by TbNT12.2 (in words)” value in the data set with TbNT12.2 [3] is given as “did not mediate the uptake”. Besides, the “TbNT11.1-mediated uptake” value on TbNT11.1 [4] is “mediated uptake”. For the same molecule, at TbNT11.1 [4] (read-out: Km for uptake by TbNT11.1, substrate saturation, 1 min, Δlmant3[pTbNT11.1], n=3), the Km was 7.2 ± 2.3 µM.

Regarding `Nc1ncnc2c1ncn2[C@@H]1O[C@H](CO)[C@@H](O)[C@H]1O` [adenosine], the “Inhibition of [3H]hypoxanthine uptake by TbNT11.1 (in words)” value at TbNT11.1 [7] is “an inhibitor”. Besides, the “Uptake of [3H]adenosine” value on TbNT11.1 [10] is reported as “did not take up”.

In the case of `OC[C@H]1O[C@@H](n2cnc3c(O)nc(O)nc32)[C@H](O)[C@@H]1O` [xanthosine], the “Inhibition … by nucleosides” value on TbNT11.1 [7] is “failure”.

As for `O=c1cc[nH]c(=O)[nH]1` [uracil], at TbNT11.1 [7], the “Inhibition of hypoxanthine uptake by pyrimidine nucleobases” value is “did not inhibit”.

For `O=c1[nH]cnc2c1ncn2[C@@H]1O[C@H](CO)[C@@H](O)[C@H]1O` [inosine], the “Inhibition … by nucleosides” value on TbNT11.1 [7] is recorded as “failure”.

“TbNT11.1 (Trypanosoma brucei brucei TREU927)”: the Km in the data set on O=c1[nH]cnc2nc[nH]c12 was found to be 141 µM.

For the molecule `Oc1ncnc2[nH]ncc12` [allopurinol, 4-hydroxypyrazolo[3,4-d]-pyrimidine-4-one], affinity at TbNT11.1 [7] was put at a Ki of 67 µM. Further, the “TbNT11.1-mediated uptake” value at TbNT11.1 [4] is “promoted uptake”.

B1: TbNT12.1 (Trypanosoma brucei brucei TREU927) (protein)
chain: MMLGFESVSEFTVYITFIFFGMSAVVVTTSIFSIPFFFIEYYKYAQGDPNAEAEDQRFWNNVFTYYNATTFLVEFLLTLFMLTNLGRRIPLAVRLGAGLILSILAVFVVIMVTIIKTTETGAKVTIMLVGVINGVAATLCDTGNGALISPFPTKFFSAVVWGVAVCGIITSFFSIVIKASMESNYESMLTQSRIFFGLVVLLEVVSCILLVLLRKNPYAMKYAAEFRYAARERTNACENKESGASNGPAEQDEDSVAIDNNTTKGNVMTVTVDPDTMKDTDQVEDITNSQQMLKAKVSVVLKRVWPMLAAGFLAFSTTFLVYPGVFFAVKTDVPNGWYMTITAAMFHFGDFLSRLLLQFKRLQPSPRYVVVGTFARVFLIIPLVFCVRGIIGGTLLPYILSFLWGLTYGYFGGMALIHTPRTGSLTAAGERSLAANCAVIAILCGLFSGSMLALAVKEGLPQ
Regarding B1, the Km in data set [11] turned out to be 161 ± 8 µM.

In general, EC50 refers to the concentration giving half of the maximal effect. A lower EC50 goes with a more potent agent. As a reminder, the Ki is the dissociation constant of the complex between target and ligand, obtained from inhibition or displacement. Read a high Ki as weaker binding. One may read the Km as the concentration of substrate that gives half-maximal velocity.
